In patent publication US7390790B2, “Ring-substituted diphenylazetidinones, process for their preparation, medicaments comprising these compounds, and their use” (Sanofi-Aventis Deutschland GmbH, priority 2002, dated 2008):

The molecules below were run on cholesterol absorption (assay: Cholesterol absorption test: uptake of 14C-cholesterol by the liver). Details: dose at which the uptake of 14C-cholesterol by the liver was halved (50%), based on a control group; peroral test substance immediately prior to 14C-cholesterol test meal; interpolated from dose-effect curve.
Format: in vivo, mouse
Text: Effect of the compounds of the invention on cholesterol absorption and 3H-taurocholic acid excretion using fecal excrement of mice, rats or hamsters
NMRI mice, Wistar rats, or Golden Syrian hamsters (in groups of n=4-6) were kept in metabolic cages, where they were fed with a standard diet (Altromin, Lage (Lippe)). The afternoon prior to the administration of the radioactive tracers (14C-cholesterol), the feed was removed and the animals were adapted to grates.
Additionally, the animals were labeled s.c. with 3H-TCA (taurocholic acid) (for example 1 μCi/mouse up to 5 μCi/rat) 24 hours prior to the peroral administration of the test meal (14C-cholesterol in Intralipid® 20, Pharmacia-Upjohn).
Cholesterol absorption test: 0.25 ml/mouse Intralipid® 20 (Pharmacia-Upjohn) ((spiked with 0.25 μCi of 14C-cholesterol in 0.1 mg of cholesterol) was administered perorally by gavage.
Test substances were prepared separately in 0.5% methylcellulose (Sigma)/5% Solutol (BASF, Ludwigshafen) or a suitable vehicle.
The administration volume of the test substance was 0.5 ml/mouse. The test substance was administered immediately prior to the test meal (Intralipid labeled with 14C-cholesterol) (cholesterol absorption test).
The feces were collected over a period of 24 h. Fecal elimination of 14C-cholesterol and 3H-taurocholic acid (TCA) was determined after 24 hours.
The livers were removed and homogenized, and aliquots were incinerated in an oximate (Model 307, Packard) to determine the amount of 14C-cholesterol that had been taken up/absorbed.
The amount of ^14C-cholesterol taken up by the liver was based on the administered dose. The ED50 values were interpolated from a dose-effect curve as the dose at which the uptake of 14C-cholesterol by the liver was halved (50%), based on a control group.

| Compound | ED50 (liver) [mg/mouse] |
| --- | --- |
| COc1ccc(C2C(CCC(O)c3ccc(F)cc3)C(=O)N2c2ccc(CNC(=O)c3ccc(Oc4ccc(C(=O)NCC(O)C(O)C(O)C(O)CO)cc4)cc3)cc2)cc1 (stereo not drawn) [Example I, 2,3,4,5,6-Pentahydroxyhexylamide of 4-(4-{4-[3-[3-(4-fluorophenyl)-3-hydroxypropyl]-2-(4-methoxyphenyl)-4-oxoazetidin-1-yl]benzylcarbamoyl}phenoxy)benzoic acid] | <0.1 |
| O=C(NCc1ccc(N2C(=O)C(CCC(O)c3ccccc3)C2c2ccccc2)cc1)c1ccc(Oc2ccc(C(=O)NCC(O)C(O)C(O)C(O)CO)cc2)cc1 (stereo not drawn) [Example II, 2,3,4,5,6-Pentahydroxyhexylamide of 4-(4-{4-[3-(3-hydroxy-3-phenylpropyl)-2-oxo-4-phenylazetidin-1-yl]benzylcarbamoyl}phenoxy)benzoic acid] | <1.0 |
| O=C1C(CCC(O)c2ccc(F)cc2)C(c2ccc(OCc3ccc(C[N+]45CCN(CC4)CC5)cc3)cc2)N1c1ccc(F)cc1.[Br-] (stereo not drawn) [Example IV, 1-[4-(4-{1-(4-Fluorophenyl)-3-[3-(4-fluorophenyl)-3-hydroxypropyl]-4-oxoazetidin-2-yl}phenoxymethyl)benzyl]-4-aza-1-azoniabicyclo[2.2.2]octane bromide] | <0.1 |
| O=C1C(CCC(O)c2ccc(F)cc2)C(c2ccc(OCc3ccc(CNCC(O)C(O)C(O)C(O)CO)cc3)cc2)N1c1ccc(F)cc1 (stereo not drawn) [Example V, 1-(4-Fluorophenyl)-3-[3-(4-fluorophenyl)-3-hydroxypropyl]-4-(4-{4-[(2,3,4,5,6-pentahydroxyhexylamine)methyl]benzyloxy}phenyl)azetidin-2-one] | <0.1 |
| O=C(Cc1ccc(C[N+]23CCN(CC2)CC3)cc1)NCc1ccc(C2C(CCC(O)c3ccc(F)cc3)C(=O)N2c2ccc(F)cc2)cc1.O=C([O-])C(F)(F)F (stereo not drawn) [Example XV, 1-{4-[(4-{1-(4-Fluorophenyl)-3-[3-(4-fluorophenyl)-3-hydroxypropyl]-4-oxoazetidin-2-yl}-benzylcarbamoyl)-methyl]-benzyl}-4-aza-1-azoniabicyclo[2.2.2]octane trifluoroacetate] | <1.0 |
| O=C1C(CCC(O)c2ccc(F)cc2)C(c2ccc(OCc3cccc(CNCC(O)C(O)C(O)C(O)CO)c3)cc2)N1c1ccc(F)cc1 (stereo not drawn) [IX, 1-(4-Fluorophenyl)-3-[3-(4-fluorophenyl)-3-hydroxypropyl]-4-(4-{3-[(2,3,4,5,6-pentahydroxyhexylamine)methyl]benzyloxy}phenyl)azetidin-2-one] | <0.1 |
| O=C1C(CCC(O)c2ccc(F)cc2)C(c2ccc(OCc3ccccc3C[N+]34CCN(CC3)CC4)cc2)N1c1ccc(F)cc1.[Br-] (stereo not drawn) [VI, 1-[2-(4-{1-(4-Fluorophenyl)-3-[3-(4-fluorophenyl)-3-hydroxypropyl]-4-oxoazetidin-2-yl}phenoxymethyl)benzyl]-4-aza-1-azoniabicyclo[2.2.2]octane bromide] | 0.3 |
| O=C1C(CCC(O)c2ccc(F)cc2)C(c2ccc(OCc3ccccc3CNCC(O)C(O)C(O)C(O)CO)cc2)N1c1ccc(F)cc1 (stereo not drawn) [VII, 1-(4-Fluorophenyl)-3-[3-(4-fluorophenyl)-3-hydroxypropyl]-4-(4-{2-[(2,3,4,5,6-pentahydroxyhexylamine)methyl]benzyloxy}phenyl)azetidin-2-one] | <1.0 |
| O=C1C(CCC(O)c2ccc(F)cc2)C(c2ccc(OCc3cccc(C[N+]45CCN(CC4)CC5)c3)cc2)N1c1ccc(F)cc1.[Br-] (stereo not drawn) [VIII, 1-[3-(4-{1-(4-Fluorophenyl)-3-[3-(4-fluorophenyl)-3-hydroxypropyl]-4-oxoazetidin-2-yl}phenoxymethyl)benzyl]-4-aza-1-azoniabicyclo[2.2.2]octane bromide] | <1.0 |
